# Assay results from patent publication US5093519A, “Vitamin D derivatives: therapeutic applications and applications to assays of metabolities of vitamin D” (priority 1988, dated 1992).
# Read-outs that look alike come from different tables or passages of the source.
# Experiments:
# [1] = test system: human lymphocytes; experiment: Inhibition of proliferation of PHA-stimulated human lymphocytes; assay type: cell-based; conditions: for inhibition of lymphocyte proliferation (in words): compound alone; for inhibition of lymphocyte proliferation, less active than 1,25-(OH)2 -vitamin D3: fold less active than 1,25-(OH)2 -vitamin D3; for antagonist effect in lymphocyte proliferation test: 10^-10 M derivative added to 1,25-(OH)2 -vitamin D3
# From the text: For example, if the proliferative response of human lymphocytes stimulated with PHA is 100 in the absence of vitamin D3, it is reduced to 66.5 in the presence of 10^-11 M 1,25-(OH)2 -vitamin D3 (Table 1). In the same test, the addition of 11-(2-hydroxyethyl)-1,25-(OH)2 -D3 induces no inhibition at 10^-10 M (102.6).
# (§1) Bibliographic References 21, 22 and 23 served as references for the methodology of the tests of binding to DBP and to the receptor, and of the test of inhibition of lymphocyte proliferation.
# [2] = background knowledge, cited from earlier work
# [3] = test system: intracellular receptor of vitamin D; conditions: background knowledge; cited from earlier work
# [4] = test system: HL 60 cells; experiment: Differentiation of HL 60 leukemic cells in vitro; assay type: cell-based; conditions: in words
# From the text: This is, in effect, directly confirmed in various biological tests (induction of the differentiation HL 60 leukemic cells, inhibition of lymphocyte proliferation, modification of the proliferation of cancer cells, calciotropic effect, and the like). FIGS. (3-4) illustrate the effect of different analogs on the differentiation of HL 60 leukemic cells.
# [5] = test system: vitamin D-binding protein (DBP); conditions: background knowledge, cited from earlier work
# [6] = biological target: T1, intracellular receptor for vitamin D (Rattus norvegicus, UniProt P13053); experiment: Binding to the intracellular receptor for vitamin D, displacement of [^3 H]-1,25-(OH)2 -vitamin D3 (rat duodenum); conditions: in words
# T1 construct: from tissue; host or cells: rat duodenum
# T1 sequence (P13053 1-423): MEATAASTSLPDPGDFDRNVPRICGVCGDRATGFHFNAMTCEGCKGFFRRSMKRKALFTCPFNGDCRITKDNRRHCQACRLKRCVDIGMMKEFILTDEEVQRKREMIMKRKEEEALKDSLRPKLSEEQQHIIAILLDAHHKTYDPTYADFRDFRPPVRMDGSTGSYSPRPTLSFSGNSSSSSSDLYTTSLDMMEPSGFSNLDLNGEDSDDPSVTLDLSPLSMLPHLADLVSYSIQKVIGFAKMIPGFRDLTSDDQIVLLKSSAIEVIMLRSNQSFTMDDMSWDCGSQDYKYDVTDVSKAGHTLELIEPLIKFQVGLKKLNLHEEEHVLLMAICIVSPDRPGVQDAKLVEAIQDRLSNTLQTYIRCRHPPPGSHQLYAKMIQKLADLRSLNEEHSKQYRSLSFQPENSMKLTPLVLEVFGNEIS
# From the text: Binding of 1,25-(OH)2 -vitamin D and two C^11 -derivatives to the intracellular receptor for vitamin D, measured by displacement of the binding of the tracer ]^3 H]-1,25-(OH)2 -vitamin D3.
# The affinity, however, is approximately 100- to 200-fold lower than that of 1,25-(OH)2 -vitamin D3. This experiment is reproducible with receptors of different origins (rat duodenum in the example illustrated, but also calf thymus, human lymphocytes, and the like).
# as §1
# [7] = biological target: T2, purified human DBP (Homo sapiens, UniProt P02774); experiment: Binding to purified human DBP, displacement of [^3 H]-25-OH-vitamin D3; conditions: in words; FIG. 1
# T2 construct: displacement of [3H]-25-OH-vitamin D3
# T2 sequence (P02774 17-474): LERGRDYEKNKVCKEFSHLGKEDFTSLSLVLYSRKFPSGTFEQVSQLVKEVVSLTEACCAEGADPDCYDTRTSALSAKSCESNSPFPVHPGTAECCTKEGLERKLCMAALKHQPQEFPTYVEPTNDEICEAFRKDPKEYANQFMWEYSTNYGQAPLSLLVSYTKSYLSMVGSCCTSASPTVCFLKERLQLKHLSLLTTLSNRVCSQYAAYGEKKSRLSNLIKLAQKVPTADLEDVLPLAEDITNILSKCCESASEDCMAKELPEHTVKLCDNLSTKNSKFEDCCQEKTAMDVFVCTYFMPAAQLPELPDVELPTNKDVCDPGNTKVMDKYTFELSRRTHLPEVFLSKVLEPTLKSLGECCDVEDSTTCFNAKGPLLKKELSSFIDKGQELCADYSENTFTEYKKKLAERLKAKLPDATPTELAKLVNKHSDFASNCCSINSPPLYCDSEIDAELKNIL
# From the text: Binding to purified human DBP of 25-OH-vitamin D3, 1,25-(OH)2 -vitamin D3 and some C^11 -derivatives of these molecules, measured by displacement of the binding of the tracer [^3 H]-25-OH-vitamin D3.
# This affinity is not modified with an 11-hydroxyethyl derivative. […] This property has been turned to good account for obtaining analogs which can be iodinated via their branch at C^11, and these derivatives have been used successfully, for example, for developing the first specific assay for 25-OH-vitamin D3 using an iodinated tracer.
# as §1
compound,measurement,setting,value
"C=C1/C(=C\C=C2/CCC[C@]3(C)[C@@H]([C@H](C)CCCC(C)(C)O)CC[C@@H]23)C[C@@H](O)C[C@@H]1O [1,25-(OH)2-vitamin D3]",lymphocyte proliferation,"[1]; 1,25-(OH)2 -vitamin D3 10^-11 M alone, 100% in absence of vitamin D3, 1e-05 µM",66.5%
same,lymphocyte proliferation,"[1]; 1,25-(OH)2 -vitamin D3 10^-12 M alone, 100% in absence of vitamin D3, 1e-06 µM",93.8%
same,inhibition of lymphocyte proliferation (in words),[1],marked inhibition of proliferation
same,half-life,[2],short half-life
same,therapeutic index,"[2]; listed as 1,25-(OH)2)-vitamin D",very narrow therapeutic index
same,therapeutic index,"[2]; listed as 1,25-(OH)2 -Vitamin D",narrow
same,affinity for the intracellular receptor of vitamin D,[3],high affinity
same,biological activity in a test of differentiation of HL 60 cells,[4]; FIGS. 3-4,active
same,affinity for DBP,[5],lower affinity
same,affinity for DBP,"[5]; listed as 1α,25-(OH)2 -vitamin D",low affinity
"C=C1CCC(O)CC1=CC=C1CC(CCO)CC2(C)C1CCC2C(C)CCCC(C)(C)O (centres unmarked) [compound 56, 11-(2-hydroxyethyl)-25-OH-vitamin D3]",biological activity in a test of differentiation of HL 60 cells,[4]; FIGS. 3-4,of low activity
"C=C1/C(=C\C=C2/C[C@H](CCOC(=O)CCC(=O)O)C[C@]3(C)[C@@H]([C@H](C)CCCC(C)(C)O)CC[C@@H]23)C[C@@H](O)C[C@@H]1O [compound 50, 11α-(2-HS-ethyl)-1,25-(OH)2-vitamin D3]","inhibition of lymphocyte proliferation, less active than 1,25-(OH)2 -vitamin D3",[1],approximately 1000 fold
same,binding to the vitamin D3 receptor,"[6]; FIG. 2, listed as 11α-(2-hemisuccinoyloxyethyl vitamin D3)",comparable
C=C1/C(=C\C=C2/C[C@H](CCOC(=O)CCC(=O)O)C[C@]3(C)[C@@H]([C@H](C)CCCC(C)(C)O)CC[C@@H]23)C[C@@H](O)C[C@@H]1O [11β-(2-hemisuccinoyloxyethyl)],binding to the vitamin D3 receptor,[6]; FIG. 2,bind the vitamin D3 receptor
"C=C1/C(=C\C=C2/C[C@H](CCO)C[C@]3(C)[C@@H]([C@H](C)CCCC(C)(C)O)CC[C@@H]23)C[C@@H](O)C[C@@H]1O [compound 49, 11α-(2-OH-ethyl)-1,25-(OH)2-vitamin D3]",antagonist effect in lymphocyte proliferation test,"[1]; listed as 11-(2-hydroxyethyl)-1,25-(OH)2 -D3",antagonizes its inhibitory effect
same,antagonist effect in lymphocyte proliferation test,[1]; listed as 11-(OH-ethyl) derivative,behaves as a partial antagonist of vitamin D3
same,lymphocyte proliferation,"[1]; 11-(2-OH-Ethyl) derivative 10^-10 M + 1,25-(OH)2 -vitamin D3 10^-11 M, 0.0001 µM",91.8%
same,lymphocyte proliferation,"[1]; 11-(2-OH-Ethyl) derivative 10^-10 M + 1,25-(OH)2 -vitamin D3 10^-12 M, 0.0001 µM",98.5%
same,activity at 0.0001 µM,"[1]; Homo sapiens, Lymphocyte, 10^-10 M alone, response is 100 in the absence of vitamin D3, read-out: proliferative response of lymphocytes",103%
same,inhibition of lymphocyte proliferation (in words),[1],no inhibition
same,"inhibition of lymphocyte proliferation, less active than 1,25-(OH)2 -vitamin D3",[1],100 fold
same,biological activity in a test of differentiation of HL 60 cells,[4]; FIGS. 3-4,of low activity
same,binding to purified human DBP,[7],not modified
same,binding to the vitamin D3 receptor,"[6]; FIG. 2, listed as 11α-(hydroxyethyl)",bind the vitamin D3 receptor
same,binding to the vitamin D3 receptor,"[6]; FIG. 2, listed as 11α-(hydroxyethyl)-1,25-(OH)2 -vitamin D3",comparable
"C=C1/C(=C\C=C2/C[C@H](c3ccccc3)C[C@]3(C)[C@@H]([C@H](C)CCCC(C)(C)O)CC[C@@H]23)C[C@@H](O)C[C@@H]1O [compound 48, 1α,25-(OH)2-11α-phenylvitamin D3]",biological activity in a test of differentiation of HL 60 cells,"[4]; FIGS. 3-4, listed as 11α-phenyl-1,25-(OH)2 -vitamin D3",active
same,biological activity in a test of differentiation of HL 60 cells,"[4]; FIGS. 3-4, listed as phenyl derivative",moderately active
same,binding to the vitamin D3 receptor,[6]; FIG. 2,binds the receptor better than the 11α-hydroxyethyl derivatives
"C=C1/C(=C\C=C2/C[C@H](C)C[C@]3(C)[C@@H]([C@H](C)CCCC(C)(C)O)CC[C@@H]23)C[C@@H](O)C[C@@H]1O [compound 47, 1α,25-(OH)2-11α-methylvitamin D3]",biological activity in a test of differentiation of HL 60 cells,"[4]; FIGS. 3-4, listed as 11α-methyl-1,25-(OH)2 -vitamin D3","strong activity, approaching that of 1,25-(OH)2 -vitamin D3"
same,biological activity in a test of differentiation of HL 60 cells,"[4]; FIGS. 3-4, listed as methyl derivative",very active
same,binding to the vitamin D3 receptor,[6]; FIG. 2,"affinity comparable to unsubstituted 1,25-(OH)2 -vitamin D3"
"C=C1CC[C@H](O)C/C1=C/C=C1\C[C@H](CCOC(=O)CCC(=O)O)C[C@]2(C)[C@@H]([C@H](C)CCCC(C)(C)O)CC[C@@H]12 [compound 57, 11-(2-HS-ethyl)-25-OH-vitamin D3]",binding to purified human DBP,[7],does not necessarily modify this affinity substantially
C=C1CC[C@H](O)C/C1=C/C=C1\CCC[C@]2(C)[C@@H]([C@H](C)CCCC(C)(C)O)CC[C@@H]12 [25-OH-vitamin D3],affinity for the intracellular receptor of vitamin D,[3],low affinity
same,biological activity in a test of differentiation of HL 60 cells,[4]; FIGS. 3-4,of low activity
same,affinity for DBP,[5],high affinity
